# Assay results: patent US20140309296A1, “BUDIODARONE FORMULATIONS” (Armetheon, Inc., priority 2013, published 2014)
# Read-outs that look alike come from different tables or passages of the source.
# Key:
# [1] = Solubility of budiodarone tartrate in different co-solvents (Example 5); assay type: physicochemical; conditions: co-solvent 3.6% to 14.4% in water, 25 mg/ml, 24 hours
# Protocol: Co-solvents that are routinely used in injectable pharmaceutical preparations were studied. These were dimethylacetamide (DMA), dimethylsulfoxide (DMSO), ethanol (EtOH), and N-methylpyrrolidone (NMP). Samples were prepared as described in Table 4 below.
# Samples were prepared by mixing all three components together as in previous examples, using a vortexer at maximum speed for 3×10 sec. Samples were then left in the dark for 24 hours and analyzed by HPLC following centrifugation to precipitate any insoluble material.
# [2] = Pre-formed 3/1 benzyl alcohol/budiodarone composition, solubility in water (Example 7); assay type: physicochemical; conditions: 25 mg/ml budiodarone, 0.92% (v/v) benzyl alcohol, pre-mixed before water is added
# Protocol: A clear solution containing 25 mg/ml of budiodarone and 0.92% (v/v) of benzyl alcohol (molar ratio of 3/1) was prepared. In this example, the association between budiodarone and benzyl alcohol was pre-formed before water is added.
# Methanol (5 ml), budiodarone tartrate (250 mg, 0.293 mmole), and benzyl alcohol (92 μl, 0.880 mmole) were mixed. In this mixture, the molar ratio of benzyl alcohol to budiodarone was 3/1. Methanol was removed at 36° C. under partial vacuum (30 mm Hg) to form a clear oily residue. The residue was left at room temperature under high vacuum (1 mmHg) for 1 hour to remove traces of methanol. Water (10 ml), is then added, and the sample is vortexed for 3×10 sec.
# In order to confirm the solubility of budiodarone and the molar ratio between benzyl alcohol and budiodarone, the sample was analyzed by HPLC. The analysis was performed immediately after preparation of the solution. An aliquot of the solution was centrifuged as described above in order to remove insoluble material.
# [3] = Low ratio of benzyl alcohol to budiodarone in water and 5% dextrose solution, stability (Example 9); assay type: physicochemical; conditions: 2.14/1 molar ratio, 25 mg/ml, room temperature
# Protocol: The methanol was evaporated at 36° C. under partial vacuum (30 mmHg) to yield a thin film. To this residue was added 5 ml of water. The sample was then vortexed and a clear 25 mg/ml solution of budiodarone tartrate was obtained. A small aliquot was diluted 25 times with methanol and analyzed by HPLC (Sample 1). To the flask was then added 250 mg of D-(+)-glucose (also known as dextrose), resulting in a clear solution of 25 mg/ml budiodarone tartrate in 5% dextrose (D5W). A small sample was analyzed by HPLC (Sample 2).
# Sample 2 is then analyzed over time to check physical and/or chemical stability in solution (Table 9).
# [4] = Budiodarone concentration attainable in hyperconcentrated solutions (Examples 16-18); assay type: physicochemical
# Protocol: The benzyl alcohol/budiodarone tartrate solution is viscous and therefore direct measurement of the budiodarone concentration is difficult. A better way to measure budiodarone concentration in the solution of benzyl alcohol and budiodarone oil or in a hyperconcentrated solution is by using an indirect method. In this example, the volume of the benzyl alcohol/budiodarone mixture was measured, which in turn allowed for the calculation of an accurate budiodarone concentration.
# In each of five vials of accurately known volume, budiodarone tartrate (250 mg) and benzyl alcohol (91 μl) were mixed in order to make a 3/1 mixture (mol/mol). Then the solution was mixed thoroughly in order to make a clear solution. This was aided with the help of warming to 50° C. for 3 minutes in order to reduce the viscosity of the mixture. The weight of the vial containing the 3:1 mixture of benzyl alcohol/budiodarone was then recorded. Vial number 1 was filled with silicon oil of density d=0.964 and weighed again. The difference in weight provided the weight of the silicon oil added. This, divided by the density of the silicon oil provided the volume of silicon oil necessary to fill the vial. The difference with the known volume of the vial represents the volume of the benzyl alcohol/budiodarone mixture. To Vial numbers 2, 3, 4, and 5 was added 50, 100, 200, and 400 μl of water, respectively. The contents of the vials were then thoroughly mixed in order to get hyperconcentrated solutions of different volumes and different budiodarone concentrations. The volumes of these hyperconcentrations using silicon oil were measured as described above.
# The same experiment as Example 16 was replicated, using mixtures of 5/1 ratio (250 mg of budiodarone tartrate and 152 μl of benzyl alcohol) and various volumes of water added. Using the same procedure as Example 16, a maximum calculated budiodarone concentration of 737 mg/ml and a maximum benzyl alcohol concentration of 45% (v/v) were found.
# Similarly, the experiment in Example 16 was replicated, using a 1/1 mixture (250 mg of budiodarone tartrate and 30 μl of benzyl alcohol). A maximum calculated budiodarone concentration of 1,136 mg/ml and a maximum benzyl alcohol concentration of 13.6% (v/v) were found.
# [5] = system: sodium, potassium, and calcium ion channels; conditions: animals; cited from earlier work
# [6] = cited from earlier work
# [7] = cited from earlier work; remark: listed apart in the source
# [8] = biological target: cytochrome P450 2C9 (CYP2C9) (Homo sapiens, UniProt P11712); conditions: cited from earlier work
# cytochrome P450 2C9 (CYP2C9), sequence (P11712 whole entry): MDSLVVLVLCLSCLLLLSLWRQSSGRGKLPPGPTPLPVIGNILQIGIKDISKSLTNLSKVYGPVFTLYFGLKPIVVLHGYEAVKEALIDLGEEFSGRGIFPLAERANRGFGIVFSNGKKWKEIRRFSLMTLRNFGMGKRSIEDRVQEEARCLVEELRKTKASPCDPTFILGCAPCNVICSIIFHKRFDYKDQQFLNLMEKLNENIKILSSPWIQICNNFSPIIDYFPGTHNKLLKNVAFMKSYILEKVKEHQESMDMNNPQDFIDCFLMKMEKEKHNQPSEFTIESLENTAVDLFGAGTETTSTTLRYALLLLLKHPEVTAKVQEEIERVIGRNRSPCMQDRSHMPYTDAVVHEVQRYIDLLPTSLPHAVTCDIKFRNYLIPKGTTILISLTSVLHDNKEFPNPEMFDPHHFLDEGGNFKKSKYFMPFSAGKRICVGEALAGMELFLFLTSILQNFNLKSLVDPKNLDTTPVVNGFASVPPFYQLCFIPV
# [9] = system: patients with paroxysmal atrial fibrillation (PAF); conditions: 12 weeks, cited from earlier work; for median reduction in AFB: compared to placebo
smiles,measurement,setting,value
"CC[C@H](C)OC(=O)Cc1oc2ccccc2c1C(=O)c1cc(I)c(OCCN(CC)CC)c(I)c1 [budiodarone, (1S)-1-methylpropyl 2-(3-{4-[2-(diethylamino)ethoxy]-3,5-diiodobenzoyl}benzofuran-2-yl)acetate]","amount of solubilized budiodarone in the presence of DMA, DMSO, EtOH, or NMP",[1],not significantly different from the amount solubilized in water alone
same,solubility in water of pre-formed 3/1 molar ratio,[2],water soluble
same,time for which the low molar ratio is stable in D5W,[3],about 120 hours
same,maximum calculated budiodarone concentration,[4]; 1/1 mixture,"1,136 mg/ml"
same,calculated maximum budiodarone concentration,[4]; 3:1 molar ratio of benzyl alcohol/budiodarone,890 mg/mL
same,maximum calculated budiodarone concentration,[4]; 5/1 ratio,737 mg/mL
same,atrial effects,[5],increased St-A and A-H intervals
same,"inhibition of sodium, potassium, and calcium ion channels",[5],inhibition comparable with amiodarone
same,left and right atrial refractoriness,[5],increased left and right atrial refractoriness comparable with amiodarone
same,ventricular effects,[5],increased MAPD90 and QT-interval
same,Mean trough level,[6]; 200 mg bid oral,2.4 ± 0.9 ng/mL
same,Mean trough level,[6]; 400 mg bid oral,5.2 ± 1.7 ng/mL
same,Mean trough level,[6]; 600 mg bid oral,13.1 ± 5.6 ng/mL
same,Mean trough level,[6]; 800 mg bid oral,19.8 ± 17.9 ng/mL
same,trough level,[6]; washout,0.3+0.4 ng/mL
same,"PR interval, reduction from baseline",[7]; 200 mg bid,16.6+23.9%
same,"PR interval, reduction from baseline",[7]; 400 mg bid,11.4+22.6%
same,"PR interval, reduction from baseline",[7]; 600 mg bid,27.0+32.1%
same,"PR interval, reduction from baseline",[7]; 800 mg bid,35.1 ± 30.9%
same,"proarrhythmia, clinical hypothyroidism, or hyperthyroidism",[7]; 200 to 800 mg bid,no cases
same,serious AEs,[7]; 200 to 800 mg bid,no serious AEs related to study drug
same,tolerability,[7]; 200 to 800 mg bid,generally well tolerated
same,"changes in HR, QRS, QT, or QTc",[7]; between baseline and dosing or washout,no significant changes
same,thyroid-stimulating hormone,"[7]; three patients, outside the normal range",dose-responsive increases
same,"PR interval, reduction from baseline",[7]; washout,30.7 ± 24.3%
same,inhibition of CYP2C9,[8],inhibitor
same,median reduction in AFB,[9]; 400 mg BID,54.4%
same,median reduction in AFB,[9]; 600 mg BID,75.5%
same,median reduction in AFB,"[9]; 600 mg BID, listed as Budiodarone",up to 75.5%
same,safety,"[9]; 200, 400 or 600 mg BID",no drug-related SAEs
